From patent US10913738B2 (BRISTOL-MYERS SQUIBB COMPANY, priority 2017, dated 2021)
Like-named read-outs stand apart in the source and are kept apart here.

Experiments:
[1] = target: T1, His-GST-TVMV-hRIPK1(1-324) (Homo sapiens, UniProt Q13546); assay: RIPK1 HTRF Binding Assay
T1 construct: The coding region of human RIPK1(1-324) flanked by NdeI site at 5′ end; made in house; host or cells: Spodoptera frugiperda (Sf9) insect cells, baculovirus
T1 sequence (Q13546 1-324): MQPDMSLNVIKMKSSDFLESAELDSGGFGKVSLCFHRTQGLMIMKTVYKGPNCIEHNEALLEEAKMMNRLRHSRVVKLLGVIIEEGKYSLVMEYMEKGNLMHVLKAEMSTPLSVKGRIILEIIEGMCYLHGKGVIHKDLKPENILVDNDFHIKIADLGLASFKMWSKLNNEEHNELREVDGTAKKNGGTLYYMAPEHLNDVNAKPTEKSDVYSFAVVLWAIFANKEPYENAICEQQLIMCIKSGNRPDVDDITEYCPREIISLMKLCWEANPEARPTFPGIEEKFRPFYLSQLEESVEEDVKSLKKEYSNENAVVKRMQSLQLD

[2] = test system: MLKL phosphorylation in HT29-L23 human colorectal adenocarcinoma cells; assay: MLKL Phosphorylation High-Content Assay; format: cell-based; settings: Homo sapiens
Method in brief: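 Cells incubated six hours at 37° C., then phospho-MLKL (S358) immunostained overnight at 4° C. and imaged by high-content microscopy. Phosphorylation quantified as mean circ-ring average intensity ratio; IC50 and Ymax from 4-parameter logistic fits.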

[3] = x marks IC50 class <20 nM, read-out: RIPK1 HTRF binding <20 nM
[4] = x marks IC50 class 20-200 nM, read-out: pMLKL cell activity 20-200 nM
[5] = x marks IC50 class <20 nM, read-out: pMLKL cell activity <20 nM
[6] = x marks IC50 class 20-200 nM, read-out: RIPK1 HTRF binding 20-200 nM
[7] = x marks IC50 class >200 nM, read-out: pMLKL cell activity >200 nM

| Structure (SMILES) | IC50 [1, 3] [nM] | IC50 [2, 4] [nM] | also measured |
| --- | --- | --- | --- |
| CNc1ncc(-c2ccn3nc(N)nc3c2)cc1C(=O)NCCC(C)c1ccccc1 (centres unmarked) [Example 70, 5-{2-Amino-[1,2,4]triazolo[1,5-a]pyridin-7-yl}-2-(methylamino)-N-(3-phenylbutyl)pyridine-3-carboxamide] | < 20 | 20 to 200 | – |
| COc1nc(C)c(-c2ccn3nc(N)nc3c2)cc1C(=O)NCc1ccccc1OCC(C)C [Example 327, 5-(2-amino-[1,2,4]triazolo[1,5-a]pyridin-7-yl)-N-(2-isobutoxybenzyl)-2-methoxy-6-methylnicotinamide] | < 20 | – | IC50 [2, 5]: < 20 nM |
| Cc1ncc(-c2ccn3nc(N)nc3c2)cc1C(=O)NCC[C@@H](O)c1ccc(Cl)cc1 [Example 224] | < 20 | 20 to 200 | – |
| Cc1cnc(-c2ccn3nc(N)nc3c2)cc1C(=O)NCC[C@@H](O)c1ccc(Cl)cc1 [Example 395, (R)-2-(2-amino-[1,2,4]triazolo[1,5-a]pyridin-7-yl)-N-(3-(4-chlorophenyl)-3-hydroxypropyl)-5-methylisonicotinamide] | < 20 | 20 to 200 | – |
| COc1ncc(-c2ccn3nc(N)nc3c2)cc1C(=O)NC(C)c1cccc(OC(F)(F)F)c1 (single isomer, unassigned) [Example 36-1, 5-{2-Amino-[1,2,4]triazolo[1,5-a]pyridin-7-yl}-2-methoxy-N-{1-[3-(trifluoromethoxy)phenyl]ethyl}pyridine-3-carboxamide] | – | 20 to 200 | IC50 [1, 6]: 20 to 200 nM |
| COc1ncc(-c2ccn3nc(N)nc3c2)cc1C(=O)NCc1ccccc1OC1CCC(C)C1 (centres unmarked) [Example 32, 5-{2-Amino-[1,2,4]triazolo[1,5-a]pyridin-7-yl}-2-methoxy-N-({2-[(3-methylcyclopentyl)oxy]phenyl}methyl)pyridine-3-carboxamide] | < 20 | – | IC50 [2, 5]: < 20 nM |
| COc1nc(C)c(-c2ccn3nc(N)nc3c2)cc1C(=O)NCc1c(F)cccc1OC1CCCC1 [Example 217, 5-{2-amino-[1,2,4]triazolo[1,5-a]pyridin-7-yl}-N-{[2-(cyclopentyloxy)-6-fluorophenyl]methyl}-2-methoxy-6-methylpyridine-3-carboxamide] | < 20 | 20 to 200 | – |
| Cc1nc(C)c(-c2ccn3nc(N)nc3c2)cc1C(=O)NCCc1cccc(OC(F)(F)F)c1 [Example 175, 5-{2-amino-[1,2,4]triazolo[1,5-a]pyridin-7-yl}-2,6-dimethyl-N-{2-[3-(trifluoromethoxy)phenyl]ethyl}pyridine-3-carboxamide] | < 20 | – | IC50 [2, 5]: < 20 nM |
| Cc1ncc(-c2ccn3nc(N)nc3c2)cc1C(=O)NCc1cccnc1OC1CCCC1 [Example 240, 5-{2-amino-[1,2,4]triazolo[1,5-a]pyridin-7-yl}-N-{[2-(cyclopentyloxy)pyridin-3-yl]methyl}-2-methylpyridine-3-carboxamide] | < 20 | 20 to 200 | – |
| Cc1ncc(-c2ccn3nc(N)nc3c2)cc1C(=O)NCc1ccccc1OCC1CCCCC1 [Example 230, 5-{2-amino-[1,2,4]triazolo[1,5-a]pyridin-7-yl}-N-{[2-(cyclohexylmethoxy)phenyl]methyl}-2-methylpyridine-3-carboxamide] | < 20 | 20 to 200 | – |
| COc1nc(C)c(-c2ccn3nc(N)nc3c2)cc1C(=O)NCc1cc(F)cc(F)c1O[C@@H]1CCN(C)C1 [Example 359, (R)-5-(2-amino-[1,2,4]-triazolo[1,5-a]pyridin-7-yl)-N-(3,5-difluoro-2-((1-methylpyrrolidin-3-yl)oxy)benzyl)-2-methoxy-6-methylnicotinamide] | – | – | IC50 [1, 6]: 20 to 200 nM; IC50 [2, 7]: > 200 nM |
| Cc1nc(C)c(-c2ccn3nc(N)nc3c2)cc1C(=O)NCc1cc(F)cc(F)c1OCC1CCCC1 [Example 188, 5-{2-amino-[1,2,4]triazolo[1,5-a]pyridin-7-yl}-N-{[2-(cyclopentylmethoxy)-3,5-difluorophenyl]methyl}-2,6-dimethylpyridine-3-carboxamide] | < 20 | – | IC50 [2, 5]: < 20 nM |
| CCc1ccccc1CNC(=O)c1cc(-c2ccn3nc(N)nc3c2)cnc1OC [Example 133, 5-{2-amino-[1,2,4]triazolo[1,5-a]pyridin-7-yl}-N-[(2-ethylphenyl)methyl]-2-methoxypyridine-3-carboxamide] | – | – | IC50 [1, 6]: 20 to 200 nM; IC50 [2, 7]: > 200 nM |
| COc1ncc(-c2ccn3nc(N)nc3c2)cc1C(=O)NCc1ccccc1OC(C)C [Example 144, 5-{2-amino-[1,2,4]triazolo[1,5-a]pyridin-7-yl}-2-methoxy-N-{[2-(propan-2-yloxy)phenyl]methyl}pyridine-3-carboxamide] | < 20 | 20 to 200 | – |
| COc1ncc(-c2ccn3nc(N)nc3c2)cc1C(=O)NCc1c(F)cc(F)cc1OCC1CCCC1 [Example 122, 5-{2-amino-[1,2,4]triazolo[1,5-a]pyridin-7-yl}-N-{[2-(cyclopentylmethoxy)-4,6-difluorophenyl]methyl}-2-methoxypyridine-3-carboxamide] | < 20 | 20 to 200 | – |
| Nc1nc2cc(-c3cnc(Cl)c(C(=O)NCc4cccc(OC(F)(F)F)c4)c3)ccn2n1 [Example 167] | < 20 | – | IC50 [2, 5]: < 20 nM |
| COc1nc(C)c(-c2ccn3nc(N)nc3c2)cc1C(=O)NCc1ccccc1OC1CCOCC1 [Example 195, 5-{2-amino-[1,2,4]triazolo[1,5-a]pyridin-7-yl}-2-methoxy-6-methyl-N-{[2-(oxan-4-yloxy)phenyl]methyl}pyridine-3-carboxamide] | < 20 | – | IC50 [2, 5]: < 20 nM |
| COc1ncc(-c2ccn3nc(N)nc3c2)cc1C(=O)NCc1cc(F)cc(F)c1OC1CCCOC1 (centres unmarked) [Example 342, 5-(2-amino-[1,2,4]triazolo[1,5-a]pyridin-7-yl)-N-(3,5-difluoro-2-((tetrahydro-2H-pyran-3-yl)oxy)benzyl)-2-methoxynicotinamide] | < 20 | 20 to 200 | – |
| COc1ncc(-c2ccn3nc(N)nc3c2)cc1C(=O)NC(C)c1ccccc1OC(F)(F)F (single isomer, unassigned) [Example 38-2, 5-{2-Amino-[1,2,4]triazolo[1,5-a]pyridin-7-yl}-2-methoxy-N-{1-[2-(trifluoromethoxy)phenyl]ethyl}pyridine-3-carboxamide] | – | – | IC50 ([1]; x marks IC50 class >200 nM, read-out: RIPK1 HTRF binding >200 nM): > 200 nM; IC50 [2, 7]: > 200 nM |
| CCOc1ncc(-c2ccn3nc(N)nc3c2)cc1C(=O)NCc1cc(F)cc(F)c1OCC1CC1 [Example 281, 5-{2-amino-[1,2,4]triazolo[1,5-a]pyridin-7-yl}-N-{[2-(cyclopropylmethoxy)-3,5-difluorophenyl]methyl}-2-ethoxypyridine-3-carboxamide] | < 20 | 20 to 200 | – |
| COc1nc(C)c(-c2ccn3nc(N)nc3c2)cc1C(=O)NCc1ccccc1OCC1CCC(F)(F)CC1 [Example 11, 5-{2-Amino-[1,2,4]triazolo[1,5-a]pyridin-7-yl}-N-({2-[(4,4-difluorocyclohexyl)methoxy]phenyl}methyl)-2-methoxy-6-methylpyridine-3-carboxamide] | < 20 | – | IC50 [2, 7]: > 200 nM |
| COc1nc(C)c(-c2ccn3nc(N)nc3c2)cc1C(=O)NCc1cccc(OC(F)F)c1 [Example 204, 5-{2-amino-[1,2,4]triazolo[1,5-a]pyridin-7-yl}-N-{[3-(difluoromethoxy)phenyl]methyl}-2-methoxy-6-methylpyridine-3-carboxamide] | – | – | IC50 [1, 6]: 20 to 200 nM; IC50 [2, 7]: > 200 nM |
